Measured values as given in article PMC12177922, “In Vivo Ribosome-Amplified MetaBOlism, RAMBO, Effect Observed by Real Time Pulse Chase, RTPC, NMR Spectroscopy” (Biochemistry, 2025).

Legend:
Assay type in all cases: biochemical
PFK-A = molecular target: T1, PFK-A (Geobacillus stearothermophilus, UniProt P00512); test: direct 1H NMR kinetic assay (FBP peak); conditions: substrate inhibition; 1 mM F6P, 1 nM enzyme, pH 7.5, 10 mM sodium phosphate, 50 mM KCl, 10 mM MgCl2, 10 °C, no ribosomes
T1 construct: gene pfkA; commercial lyophilized enzyme (Sigma-Aldrich)

PYK-F = molecular target: T2, PYK-F (Escherichia coli, UniProt P0AD61); test: direct 1H NMR kinetic assay (pyruvate methyl peak); conditions: 2 mM PEP, 4 mM ADP, pH 7.5, 10 °C, no ribosomes; 0-8x of 50 μg/mL
T2 construct: gene pykF; full length, 470 residues, 50 kDa monomer, N-terminal 6xHis tag kept, pET-28a(+), expressed in E. coli BL21(DE3), Ni-NTA purified, homotetramer

LDH-A = molecular target: T3, LDH-A (Escherichia coli, UniProt P52643, form not given, species not given); test: direct 1H NMR kinetic assay (lactate methyl peak); conditions: substrate inhibition; 0.5 mM NADH, 0.04 nM enzyme, pH 7.5, 10 mM sodium phosphate, 50 mM KCl, 10 mM MgCl2, 10 °C, no ribosomes
T3 construct: gene ldhA; commercial recombinant enzyme (Sigma-Aldrich); authors doubt its source; printed P33232 is the quinone-dependent LldD, not an NADH-dependent LDH, so identity unresolved

Row | Compound | reduced activity (PYK-F) | also measured
1 | Nc1ncnc2c1ncn2[C@@H]1O[C@H](COP(=O)(O)OP(=O)(O)OP(=O)(O)O)[C@@H](O)[C@H]1O [ATP] | – | KI (PFK-A): 5.6 ± 1.2 mM
2 | NC[C@H]1O[C@H](O[C@H]2[C@H](O)[C@@H](O[C@H]3O[C@H](CO)[C@@H](O)[C@H](N)[C@H]3O)[C@H](N)C[C@@H]2N)[C@H](O)[C@@H](O)[C@@H]1O [Kan] | Ths, Kan and Str reduced PYK-F activity in both the presence and absence of ribosomes | –
3 | CC(=O)C(=O)O [PYR] | – | KI (LDH-A): 0.495 ± 0.074 mM
4 | CN[C@@H]1[C@H](O[C@H]2[C@H](O[C@H]3[C@H](O)[C@@H](O)[C@H](N=C(N)N)[C@@H](O)[C@@H]3N=C(N)N)O[C@@H](C)[C@]2(O)C=O)O[C@@H](CO)[C@H](O)[C@H]1O [Str] | Ths, Kan and Str reduced PYK-F activity in both the presence and absence of ribosomes | –
